Reference: US11629171B2, “Beta-hairpin peptidomimetics” (POLYPHOR AG, priority 2017, dated 2023)
In brackets after ≈: the same amount, converted by molar mass. Where a SMILES comes first, the peptide text is derived from it. Bridges are numbered along the chain shown (N, C = ends). Roman numbers before positions name the chains, in order. [ ]: non-standard residue; d: D form. Thr(ol) = C[C@@H](O)[C@H](N)CO; Tle = CC(C)(C)[C@H](N)C(=O)O; Hiv = CC(C)[C@H](O)C(=O)O; dDab = NCC[C@@H](N)C(=O)O; hSer = N[C@@H](CCO)C(=O)O; Dab = NCC[C@H](N)C(=O)O; Dap = NC[C@H](N)C(=O)O

Columns and labels:
Assay type in all cases: cell-based
[1] = system: Klebsiella pneumoniae SSI #3010; conditions: SSI #3010
In short: (§1)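 Peptides are tested in serial two-fold dilutions against about 10^6 CFU/mL in MH-II broth containing 0.002% P-80 (v/v, final). Plates incubate 18-20 h at 35° C, and the MIC is the lowest peptide level (μg/mL) showing no visible growth.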

Escherichia coli 926415 = conditions: 926415
In short: as §1

[2] = system: Klebsiella pneumoniae 968733; conditions: 968733
In short: as §1

[3] = system: Pseudomonas aeruginosa ATCC 27853; conditions: ATCC 27853
In short: as §1

[4] = system: Enterobacter cloacae 848840; conditions: 848840
In short: as §1

[5] = system: Acinetobacter baumannii 872842; conditions: 872842
In short: as §1

[6] = system: Escherichia coli ATCC 25922; conditions: ATCC 25922
In short: as §1

[7] = system: Acinetobacter baumannii DSM 30008; conditions: DSM 30008
In short: as §1

[8] = system: human red blood cells (hRBC); assay: Hemolysis; conditions: red cells of human, 1 h, 200
In short: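 Percent hemolysis relative to 2% Triton X-100 (100%) and PBS/10% water (0%), from blank-corrected OD540 of diluted supernatants. Peptides tested at 200 μg/mL against 20% (v/v) washed human erythrocytes, 1 h, 37° C, shaking at 300 rpm.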

Row | Klebsiella pneumoniae SSI #3010 MIC [1] [µg/mL] | MIC (Escherichia coli 926415) [µg/mL] | MIC [2] [µg/mL] | Pseudomonas aeruginosa ATCC 27853 MIC [3] [µg/mL] | MIC [4] [µg/mL] | MIC [5] [µg/mL] | Escherichia coli ATCC 25922 MIC [6] [µg/mL] | Acinetobacter baumannii DSM 30008 MIC [7] [µg/mL] | MIC [1] [µg/mL] | MIC [3] [µg/mL] | MIC [6] [µg/mL] | MIC [7] [µg/mL] | SMILES | Hemolysis at 200 μg/mL [8] [%]
1 | 0.03125 | 0.125 (≈ 0.0509 µM) | 0.0625 (≈ 0.0254 µM) | 0.0625 | 0.0625 (≈ 0.0254 µM) | 0.0625 (≈ 0.0254 µM) | 0.01562 | 0.01562 |  |  |  |  | CC(=O)N[C@H](C(=O)N[C@H]1CSSC[C@@H](C(=O)NCC(=O)N[C@H](CO)C(N)=O)NC(=O)[C@H](C(C)C)NC(=O)[C@H](CO)NC(=O)[C@H](Cc2c[nH]c3ccccc23)NC(=O)[C@H](CO)NC(=O)[C@@H](CCN)NC(=O)[C@H](CCC(=O)N[C@@H](CCN)C(=O)N[C@H](C(=O)N[C@@H](CN)C(=O)N[C@H]2CCNC(=O)[C@H]([C@@H](C)O)NC(=O)[C@H](CCN)NC(=O)[C@H](CCN)NC(=O)[C@H](CC(C)C)NC(=O)[C@@H](CC(C)C)NC(=O)[C@H](CCN)NC2=O)[C@@H](C)O)NC(=O)[C@H](CCN)NC(=O)[C@H](Cc2ccc(O)cc2)NC1=O)C(C)C [Ex. 377] (I: Ac-VCY[Dab]E[dDab]SWSVCG[dS]-NH2 / II: [Dab]T[Dap][Dab][Dab][dL]L[Dab][Dab]T; disulfide I:2-I:11; amide I:5-II:N; lactam II:4-II:C) | <1
2 |  | 0.125 (≈ 0.0518 µM) | 0.125 (≈ 0.0518 µM) |  | 0.25 (≈ 0.104 µM) | 0.0625 (≈ 0.0259 µM) |  |  | 0.0625 (≈ 0.0259 µM) | 0.125 (≈ 0.0518 µM) | 0.0625 (≈ 0.0259 µM) | 0.0625 (≈ 0.0259 µM) | CC(=O)N[C@H](C(=O)N[C@H]1CSSC[C@@H](C(=O)N[C@@H](CO)C(N)=O)NC(=O)[C@H](C(C)C)NC(=O)[C@H](CO)NC(=O)[C@H](Cc2c[nH]c3ccccc23)NC(=O)[C@H](CCN)NC(=O)[C@@H](CCN)NC(=O)[C@H](CCC(=O)N[C@@H](CCN)C(=O)N[C@H](C(=O)N[C@@H](CCN)C(=O)N[C@H]2CCNC(=O)[C@H]([C@@H](C)O)NC(=O)[C@H](CCN)NC(=O)[C@H](CCN)NC(=O)[C@H](CC(C)C)NC(=O)[C@@H](CC(C)C)NC(=O)[C@H](CCN)NC2=O)[C@@H](C)O)NC(=O)[C@H](CO)NC(=O)[C@H](Cc2ccc(O)cc2)NC1=O)C(C)C [Ex. 272] (I: Ac-VCYSE[dDab][Dab]WSVCS-NH2 / II: [Dab]T[Dab][Dab][Dab][dL]L[Dab][Dab]T; disulfide I:2-I:11; amide I:5-II:N; lactam II:4-II:C) | <1
3 | 0.0625 | 0.25 (≈ 0.105 µM) | 0.125 (≈ 0.0524 µM) | 0.125 | 0.0625 (≈ 0.0262 µM) | 0.0625 (≈ 0.0262 µM) | 0.03125 | 0.03125 |  |  |  |  | CC(=O)N[C@H](C(=O)N[C@H]1CSSC[C@@H](C(=O)N[C@@H](CO)C(N)=O)NC(=O)[C@H](C(C)C)NC(=O)[C@H](CO)NC(=O)[C@H](Cc2c[nH]c3ccccc23)NC(=O)[C@H](CO)NC(=O)[C@@H](CCN)NC(=O)[C@H](CCC(=O)N[C@@H](CCN)C(=O)N[C@H](C(=O)N[C@@H](CN)C(=O)N[C@H]2CCNC(=O)[C@H]([C@@H](C)O)NC(=O)[C@H](CCN)NC(=O)[C@H](CCN)NC(=O)[C@H](C(C)C)NC(=O)[C@@H](CC(C)C)NC(=O)[C@H](CCN)NC2=O)[C@@H](C)O)NC(=O)[C@H](CCN)NC(=O)[C@H](Cc2ccc(O)cc2)NC1=O)C(C)C [Ex. 312] (I: Ac-VCY[Dab]E[dDab]SWSVCS-NH2 / II: [Dab]T[Dap][Dab][Dab][dL]V[Dab][Dab]T; disulfide I:2-I:11; amide I:5-II:N; lactam II:4-II:C) | <1

The next lines start with the molecule.

Row | SMILES | Klebsiella pneumoniae SSI #3010 MIC [1] [µg/mL] | MIC (Escherichia coli 926415) [µg/mL] | MIC [2] [µg/mL] | Pseudomonas aeruginosa ATCC 27853 MIC [3] [µg/mL] | MIC [4] [µg/mL] | MIC [5] [µg/mL] | Escherichia coli ATCC 25922 MIC [6] [µg/mL] | Acinetobacter baumannii DSM 30008 MIC [7] [µg/mL] | MIC [1] [µg/mL] | MIC [3] [µg/mL] | MIC [6] [µg/mL] | MIC [7] [µg/mL] | Hemolysis at 200 μg/mL [8] [%]
4 | CC(=O)N[C@H](C(=O)N[C@H]1CSSC[C@@H](C(=O)N[C@@H](CO)C(=O)N[C@H](CC(=O)O)C(N)=O)NC(=O)[C@H](C(C)C)NC(=O)[C@H](CO)NC(=O)[C@H](Cc2c[nH]c3ccccc23)NC(=O)[C@H](CO)NC(=O)[C@@H](CCN)NC(=O)[C@H](CCC(=O)N[C@@H](CCN)C(=O)N[C@H](C(=O)N[C@@H](CN)C(=O)N[C@H]2CCNC(=O)[C@H]([C@@H](C)O)NC(=O)[C@H](CCN)NC(=O)[C@H](CCN)NC(=O)[C@H](CC(C)C)NC(=O)[C@@H](CC(C)C)NC(=O)[C@H](CCN)NC2=O)[C@@H](C)O)NC(=O)[C@H](CCN)NC(=O)[C@H](Cc2ccc(O)cc2)NC1=O)C(C)C [Ex. 374] (I: Ac-VCY[Dab]E[dDab]SWSVCS[dD]-NH2 / II: [Dab]T[Dap][Dab][Dab][dL]L[Dab][Dab]T; disulfide I:2-I:11; amide I:5-II:N; lactam II:4-II:C) | 0.0625 | 0.5 (≈ 0.199 µM) | 1 (≈ 0.398 µM) | 0.125 | 0.25 (≈ 0.0994 µM) | 0.25 (≈ 0.0994 µM) | 0.0625 | 0.0625 |  |  |  |  | <1
5 | CC(C)C[C@@H]1NC(=O)[C@@H](CC(C)C)NC(=O)[C@H](CCN)NC(=O)[C@@H](NC(=O)[C@H](CCN)NC(=O)[C@@H](NC(=O)[C@H](CCN)NC(=O)CC[C@@H]2NC(=O)[C@@H](NC(=O)[C@H](Cc3ccc(O)cc3)NC(=O)[C@@H](NC(=O)[C@@H](O)C(C)C)[C@@H](C)O)CSSC[C@@H](C(=O)N[C@H](C(=O)N[C@@H](C)C(=O)N[C@H](CO)[C@@H](C)O)C(C)(C)C)NC(=O)[C@H](Cc3c[nH]c4ccccc34)NC(=O)[C@H](CCO)NC(=O)[C@@H](CCN)NC2=O)[C@@H](C)O)CCNC(=O)[C@H]([C@@H](C)O)NC(=O)[C@H](CCN)NC(=O)[C@H](CCN)NC1=O [Ex. 193] (I: H-[Hiv]TYCE[dDab][hSer]WC[Tle]A[Thr(ol)] / II: [Dab]T[Dab][Dab][Dab][dL]L[Dab][Dab]T; disulfide I:4-I:9; amide I:5-II:N; lactam II:4-II:C) |  | 0.5 (≈ 0.21 µM) | 0.5 (≈ 0.21 µM) |  | 0.5 (≈ 0.21 µM) | 0.5 (≈ 0.21 µM) |  |  | 0.25 (≈ 0.105 µM) | 0.25 (≈ 0.105 µM) | 0.125 (≈ 0.0524 µM) | 0.0625 (≈ 0.0262 µM) | <1
6 | CC(C)C[C@@H]1NC(=O)[C@@H](CC(C)C)NC(=O)[C@H](CCN)NC(=O)[C@@H](NC(=O)[C@H](CCN)NC(=O)[C@@H](NC(=O)[C@H](CCN)NC(=O)CC[C@@H]2NC(=O)[C@H](CCN)NC(=O)[C@H](Cc3ccc(O)cc3)NC(=O)[C@@H](NC(=O)[C@@H](NC(=O)[C@H](N)CO)C(C)C)CSSC[C@@H](C(=O)N[C@@H](CO)C(=O)N[C@H](CO)C(=O)O)NC(=O)[C@H](C(C)(C)C)NC(=O)[C@H](CO)NC(=O)[C@H](Cc3c[nH]c4ccccc34)NC(=O)[C@H]([C@@H](C)O)NC(=O)[C@@H](CCN)NC2=O)[C@@H](C)O)CCNC(=O)[C@H]([C@@H](C)O)NC(=O)[C@H](CCN)NC(=O)[C@H](CCN)NC1=O [Ex. 242] (I: H-[dS]VCY[Dab]E[dDab]TWS[Tle]CS[dS]-OH / II: [Dab]T[Dab][Dab][Dab][dL]L[Dab][Dab]T; disulfide I:3-I:12; amide I:6-II:N; lactam II:4-II:C) |  | 0.25 (≈ 0.0971 µM) | 1 (≈ 0.389 µM) |  | 4 (≈ 1.55 µM) | 0.125 (≈ 0.0486 µM) |  |  | 0.125 (≈ 0.0486 µM) | 0.125 (≈ 0.0486 µM) | 0.0625 (≈ 0.0243 µM) | 0.125 (≈ 0.0486 µM) | <1
7 | CC(=O)N[C@@H](CC(C)C)C(=O)N[C@H]1CSSC[C@@H](C(=O)N[C@@H](CO)C(N)=O)NC(=O)[C@H](C(C)C)NC(=O)[C@H](CCN)NC(=O)[C@H](Cc2c[nH]c3ccccc23)NC(=O)[C@H](CO)NC(=O)[C@@H](CCN)NC(=O)[C@H](CCC(=O)N[C@@H](CCN)C(=O)N[C@H](C(=O)N[C@@H](CN)C(=O)N[C@H]2CCNC(=O)[C@H]([C@@H](C)O)NC(=O)[C@H](CCN)NC(=O)[C@H](CCN)NC(=O)[C@H](CC(C)C)NC(=O)[C@@H](CC(C)C)NC(=O)[C@H](CCN)NC2=O)[C@@H](C)O)NC(=O)[C@H](CCN)NC(=O)[C@H](Cc2ccc(O)cc2)NC1=O [Ex. 330] (I: Ac-LCY[Dab]E[dDab]SW[Dab]VCS-NH2 / II: [Dab]T[Dap][Dab][Dab][dL]L[Dab][Dab]T; disulfide I:2-I:11; amide I:5-II:N; lactam II:4-II:C) | 0.0625 | 0.25 (≈ 0.103 µM) | 2 (≈ 0.824 µM) | 0.25 | 0.125 (≈ 0.0515 µM) | 1 (≈ 0.412 µM) | 0.0625 | 0.25 |  |  |  |  | 1
